From the NIST ThermoML archive (doi:10.1021/je034224j)
± gives the expanded uncertainty stated by the source.

Experiment: xn = mol fraction of the nth substance listed

Q: With `CCOC(C)=O` [ethyl acetate] + O=C=O as the molecule, how does the mass density (333 K, 5360 kPa, Gas, x2 = 0.1231) read?
A: The mass density was 987.7 ± 4.9 kg/m3.

Q: What about the mass density (333 K, 5360 kPa, Liquid, x2 = 0.5727) of the same molecule?
A: The mass density was 865.7 ± 14 kg/m3.

Q: And the mass density (333 K, 5960 kPa, Gas, x2 = 0.1544)?
A: Its mass density is 986 ± 5.1 kg/m3.

Q: And the mass density (333 K, 5960 kPa, Liquid, x2 = 0.6283)?
A: The mass density was 836.3 ± 17 kg/m3.

Q: What about the mass density (333 K, 6470 kPa, Gas, x2 = 0.1698) of the same molecule?
A: The mass density was 986.1 ± 5.1 kg/m3.

Q: What about the mass density (333 K, 6470 kPa, Liquid, x2 = 0.6584) of the same molecule?
A: The mass density was 814.8 ± 19 kg/m3.

Q: And the mass density (333 K, 7570 kPa, Gas, x2 = 0.2068)?
A: Its mass density is 978.7 ± 5.8 kg/m3.

Q: What about the mass density (333 K, 7570 kPa, Liquid, x2 = 0.7586) of the same molecule?
A: Its mass density is 785.3 ± 23 kg/m3.

Q: What about the mass density (333 K, 8460 kPa, Gas, x2 = 0.2731) of the same molecule?
A: Its mass density is 973.6 ± 6.4 kg/m3.

Q: What about the mass density (333 K, 8460 kPa, Liquid, x2 = 0.8057) of the same molecule?
A: Its mass density is 746.7 ± 27 kg/m3.

Q: And the mass density (333 K, 8970 kPa, Gas, x2 = 0.3708)?
A: Its mass density is 969.6 ± 6.8 kg/m3.

Q: And the mass density (333 K, 8970 kPa, Liquid, x2 = 0.8421)?
A: The mass density was 720.4 ± 30 kg/m3.

Q: What about the mass density (353 K, 3960 kPa, Gas, x2 = 0.0666) of the same molecule?
A: The mass density was 980.2 ± 5.4 kg/m3.

Q: What about the mass density (353 K, 3960 kPa, Liquid, x2 = 0.5532) of the same molecule?
A: The mass density was 923.2 ± 9.9 kg/m3.

Q: What about the mass density (353 K, 5060 kPa, Gas, x2 = 0.0935) of the same molecule?
A: The mass density was 978.3 ± 5.8 kg/m3.

Q: What about the mass density (353 K, 5060 kPa, Liquid, x2 = 0.5767) of the same molecule?
A: Its mass density is 920.9 ± 10 kg/m3.

Q: And the mass density (353 K, 6270 kPa, Gas, x2 = 0.127)?
A: The mass density was 973.9 ± 6.1 kg/m3.

Q: And the mass density (353 K, 6270 kPa, Liquid, x2 = 0.6075)?
A: The mass density was 919.6 ± 10 kg/m3.

Q: What about the mass density (353 K, 7470 kPa, Gas, x2 = 0.1822) of the same molecule?
A: Its mass density is 967.8 ± 6.8 kg/m3.

Q: What about the mass density (353 K, 7470 kPa, Liquid, x2 = 0.627) of the same molecule?
A: The mass density was 901.7 ± 13 kg/m3.

Q: And the mass density (353 K, 8470 kPa, Gas, x2 = 0.22)?
A: Its mass density is 966.1 ± 7.1 kg/m3.

Q: What about the mass density (353 K, 8470 kPa, Liquid, x2 = 0.6668) of the same molecule?
A: The mass density was 854 ± 18 kg/m3.

Q: What about the mass density (353 K, 9470 kPa, Gas, x2 = 0.2634) of the same molecule?
A: The mass density was 956 ± 8.2 kg/m3.

Q: And the mass density (353 K, 9470 kPa, Liquid, x2 = 0.7587)?
A: The mass density was 746.5 ± 29 kg/m3.

Q: What about the mass density (373 K, 5690 kPa, Gas, x2 = 0.0819) of the same molecule?
A: The mass density was 964.1 ± 6.9 kg/m3.

Q: What about the mass density (373 K, 5690 kPa, Liquid, x2 = 0.4697) of the same molecule?
A: The mass density was 758.8 ± 23 kg/m3.

Q: And the mass density (373 K, 6460 kPa, Gas, x2 = 0.1202)?
A: Its mass density is 961.2 ± 7.2 kg/m3.

Q: And the mass density (373 K, 6460 kPa, Liquid, x2 = 0.5001)?
A: The mass density was 784.3 ± 22 kg/m3.

Q: What about the mass density (373 K, 7960 kPa, Gas, x2 = 0.1682) of the same molecule?
A: The mass density was 955.5 ± 8 kg/m3.

Q: What about the mass density (373 K, 7960 kPa, Liquid, x2 = 0.5505) of the same molecule?
A: Its mass density is 790.5 ± 23 kg/m3.

Q: What about the mass density (373 K, 9470 kPa, Gas, x2 = 0.2401) of the same molecule?
A: Its mass density is 944 ± 9.5 kg/m3.

Q: And the mass density (373 K, 9470 kPa, Liquid, x2 = 0.6046)?
A: Its mass density is 781.7 ± 25 kg/m3.

Q: And the mass density (373 K, 10570 kPa, Gas, x2 = 0.352)?
A: Its mass density is 923.9 ± 12 kg/m3.

Q: And the mass density (373 K, 10570 kPa, Liquid, x2 = 0.6715)?
A: The mass density was 788.4 ± 26 kg/m3.

Q: What about the mass density (373 K, 11370 kPa, Gas, x2 = 0.4692) of the same molecule?
A: The mass density was 913.5 ± 13 kg/m3.

Q: And the mass density (373 K, 11370 kPa, Liquid, x2 = 0.7259)?
A: Its mass density is 780.3 ± 27 kg/m3.

Q: And the mass density (393 K, 5060 kPa, Gas, x2 = 0.055)?
A: Its mass density is 951.6 ± 7.8 kg/m3.

Q: And the mass density (393 K, 5060 kPa, Liquid, x2 = 0.455)?
A: Its mass density is 713.7 ± 26 kg/m3.

Q: What about the mass density (393 K, 5460 kPa, Gas, x2 = 0.0849) of the same molecule?
A: The mass density was 941.9 ± 8.7 kg/m3.

Q: And the mass density (393 K, 5460 kPa, Liquid, x2 = 0.4831)?
A: Its mass density is 744.8 ± 24 kg/m3.

Q: What about the mass density (393 K, 6970 kPa, Gas, x2 = 0.1218) of the same molecule?
A: The mass density was 932.1 ± 17 kg/m3.

Q: And the mass density (393 K, 6970 kPa, Liquid, x2 = 0.5129)?
A: Its mass density is 771.1 ± 24 kg/m3.

Q: What about the mass density (393 K, 8480 kPa, Gas, x2 = 0.1766) of the same molecule?
A: Its mass density is 917.3 ± 12 kg/m3.

Q: And the mass density (393 K, 8480 kPa, Liquid, x2 = 0.545)?
A: The mass density was 804.3 ± 22 kg/m3.

Q: And the mass density (393 K, 9970 kPa, Gas, x2 = 0.255)?
A: The mass density was 895.6 ± 14 kg/m3.

Q: And the mass density (393 K, 9970 kPa, Liquid, x2 = 0.5744)?
A: The mass density was 791.8 ± 25 kg/m3.

Q: And the mass density (393 K, 11470 kPa, Gas, x2 = 0.4)?
A: Its mass density is 856.8 ± 19 kg/m3.

Q: What about the mass density (393 K, 11470 kPa, Liquid, x2 = 0.6237) of the same molecule?
A: Its mass density is 755.8 ± 30 kg/m3.

Q: What about the mass density (393 K, 11970 kPa, Gas, x2 = 0.6025) of the same molecule?
A: The mass density was 846.6 ± 21 kg/m3.

Q: And the mass density (393 K, 11970 kPa, Liquid, x2 = 0.6629)?
A: Its mass density is 719.7 ± 35 kg/m3.

Q: Which mass density (313 K, 2960 kPa, Liquid, x2 = 0.5818) does the source give for `CCOC(=O)CC` [ethyl propanoate] + O=C=O here?
A: The mass density was 971 ± 6 kg/m3.

Q: What about the mass density (313 K, 3960 kPa, Liquid, x2 = 0.6881) of the same molecule?
A: Its mass density is 973.6 ± 6.2 kg/m3.

Q: What about the mass density (313 K, 4460 kPa, Liquid, x2 = 0.7509) of the same molecule?
A: Its mass density is 965.9 ± 6.5 kg/m3.

Q: And the mass density (313 K, 4960 kPa, Liquid, x2 = 0.799)?
A: Its mass density is 960.9 ± 7.1 kg/m3.

Q: And the mass density (313 K, 5460 kPa, Liquid, x2 = 0.8301)?
A: Its mass density is 950.9 ± 14 kg/m3.

Q: What about the mass density (313 K, 5970 kPa, Liquid, x2 = 0.8675) of the same molecule?
A: The mass density was 923.3 ± 11 kg/m3.

Q: And the mass density (313 K, 6270 kPa, Liquid, x2 = 0.8871)?
A: The mass density was 902.4 ± 12 kg/m3.

Q: And the mass density (333 K, 2960 kPa, Liquid, x2 = 0.4093)?
A: The mass density was 900.2 ± 10 kg/m3.

Q: What about the mass density (333 K, 3460 kPa, Liquid, x2 = 0.4733) of the same molecule?
A: Its mass density is 905.3 ± 10 kg/m3.

Q: And the mass density (333 K, 4460 kPa, Liquid, x2 = 0.5479)?
A: The mass density was 902.9 ± 11 kg/m3.

Q: What about the mass density (333 K, 5460 kPa, Liquid, x2 = 0.6214) of the same molecule?
A: The mass density was 895.5 ± 12 kg/m3.

Q: What about the mass density (333 K, 5960 kPa, Liquid, x2 = 0.6608) of the same molecule?
A: The mass density was 886.6 ± 13 kg/m3.

Q: And the mass density (333 K, 6660 kPa, Liquid, x2 = 0.7224)?
A: The mass density was 868.7 ± 17 kg/m3.

Q: And the mass density (333 K, 7260 kPa, Liquid, x2 = 0.7819)?
A: Its mass density is 842.2 ± 18 kg/m3.

Q: And the mass density (353 K, 2960 kPa, Liquid, x2 = 0.3557)?
A: Its mass density is 864.4 ± 13 kg/m3.

Q: And the mass density (353 K, 3860 kPa, Liquid, x2 = 0.4093)?
A: The mass density was 864.9 ± 13 kg/m3.

Q: And the mass density (353 K, 4960 kPa, Liquid, x2 = 0.4746)?
A: Its mass density is 869.1 ± 14 kg/m3.

Q: And the mass density (353 K, 5960 kPa, Liquid, x2 = 0.5459)?
A: Its mass density is 855.1 ± 16 kg/m3.

Q: What about the mass density (353 K, 6960 kPa, Liquid, x2 = 0.6173) of the same molecule?
A: Its mass density is 854 ± 16 kg/m3.

Q: What about the mass density (353 K, 7970 kPa, Liquid, x2 = 0.6847) of the same molecule?
A: The mass density was 850.5 ± 22 kg/m3.

Q: What about the mass density (353 K, 8870 kPa, Liquid, x2 = 0.7529) of the same molecule?
A: Its mass density is 824.3 ± 20 kg/m3.

Q: What about the mass density (373 K, 2960 kPa, Liquid, x2 = 0.3282) of the same molecule?
A: The mass density was 817 ± 16 kg/m3.

Q: What about the mass density (373 K, 4460 kPa, Liquid, x2 = 0.3961) of the same molecule?
A: Its mass density is 812.4 ± 18 kg/m3.

Q: What about the mass density (373 K, 5960 kPa, Liquid, x2 = 0.4965) of the same molecule?
A: The mass density was 802.1 ± 20 kg/m3.

Q: And the mass density (373 K, 7470 kPa, Liquid, x2 = 0.5422)?
A: Its mass density is 788.2 ± 22 kg/m3.

Q: What about the mass density (373 K, 8970 kPa, Liquid, x2 = 0.6332) of the same molecule?
A: Its mass density is 766.7 ± 26 kg/m3.

Q: What about the mass density (373 K, 10570 kPa, Liquid, x2 = 0.7127) of the same molecule?
A: The mass density was 735.7 ± 31 kg/m3.

Q: And the mass density (373 K, 10970 kPa, Liquid, x2 = 0.7391)?
A: Its mass density is 720.9 ± 33 kg/m3.
